How the values were obtained:
[1] = biological target: T1, Androgen receptor (Homo sapiens, UniProt P10275); test: Induction of androgen receptor degradation in human LNCaP cells incubated for 24 hrs by ELISA; type: cell-based
T1 sequence (P10275 whole entry): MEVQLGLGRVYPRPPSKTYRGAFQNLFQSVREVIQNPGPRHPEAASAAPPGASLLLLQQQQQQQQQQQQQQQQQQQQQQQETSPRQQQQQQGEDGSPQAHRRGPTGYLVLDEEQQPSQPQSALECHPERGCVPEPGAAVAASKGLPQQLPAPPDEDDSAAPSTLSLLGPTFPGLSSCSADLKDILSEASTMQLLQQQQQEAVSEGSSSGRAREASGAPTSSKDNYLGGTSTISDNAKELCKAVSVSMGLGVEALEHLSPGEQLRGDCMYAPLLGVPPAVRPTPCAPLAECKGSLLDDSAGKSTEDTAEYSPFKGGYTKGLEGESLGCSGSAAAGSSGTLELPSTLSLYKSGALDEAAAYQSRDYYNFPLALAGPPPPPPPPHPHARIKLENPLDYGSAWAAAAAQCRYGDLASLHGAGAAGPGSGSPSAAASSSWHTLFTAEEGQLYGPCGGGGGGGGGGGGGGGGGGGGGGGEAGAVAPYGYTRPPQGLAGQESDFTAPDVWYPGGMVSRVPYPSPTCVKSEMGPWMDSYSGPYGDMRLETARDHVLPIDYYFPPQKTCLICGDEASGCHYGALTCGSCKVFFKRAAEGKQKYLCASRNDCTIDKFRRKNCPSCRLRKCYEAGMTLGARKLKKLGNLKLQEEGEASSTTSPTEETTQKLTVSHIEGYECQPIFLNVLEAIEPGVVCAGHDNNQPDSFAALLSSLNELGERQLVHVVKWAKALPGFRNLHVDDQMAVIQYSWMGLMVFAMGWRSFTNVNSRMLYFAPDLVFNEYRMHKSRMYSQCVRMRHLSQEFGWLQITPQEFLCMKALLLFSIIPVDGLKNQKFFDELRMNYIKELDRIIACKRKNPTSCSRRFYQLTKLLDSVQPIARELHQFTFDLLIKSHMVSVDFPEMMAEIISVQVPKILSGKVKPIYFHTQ

[2] = system: LNCaP; test: Antiproliferative activity against human LNCaP cells incubated for 6 days by CellTiter-Glo assay; type: functional, cell-based
[3] = biological target: T2, Androgen receptor (Homo sapiens) (UniProt P10275); test: Potency index, ratio of galeterone DC50 to test compound DC50 for induction of androgen receptor degradation in human LNCaP cells; type: cell-based
T2 sequence (whole entry): T1 sequence (P10275 whole entry)

[4] = biological target: Voltage-gated inwardly rectifying potassium channel KCNH2 (Homo sapiens, UniProt Q12809); test: Inhibition of human ERG by patch clamp assay; type: toxicity
Voltage-gated inwardly rectifying potassium channel KCNH2, sequence (Q12809 whole entry): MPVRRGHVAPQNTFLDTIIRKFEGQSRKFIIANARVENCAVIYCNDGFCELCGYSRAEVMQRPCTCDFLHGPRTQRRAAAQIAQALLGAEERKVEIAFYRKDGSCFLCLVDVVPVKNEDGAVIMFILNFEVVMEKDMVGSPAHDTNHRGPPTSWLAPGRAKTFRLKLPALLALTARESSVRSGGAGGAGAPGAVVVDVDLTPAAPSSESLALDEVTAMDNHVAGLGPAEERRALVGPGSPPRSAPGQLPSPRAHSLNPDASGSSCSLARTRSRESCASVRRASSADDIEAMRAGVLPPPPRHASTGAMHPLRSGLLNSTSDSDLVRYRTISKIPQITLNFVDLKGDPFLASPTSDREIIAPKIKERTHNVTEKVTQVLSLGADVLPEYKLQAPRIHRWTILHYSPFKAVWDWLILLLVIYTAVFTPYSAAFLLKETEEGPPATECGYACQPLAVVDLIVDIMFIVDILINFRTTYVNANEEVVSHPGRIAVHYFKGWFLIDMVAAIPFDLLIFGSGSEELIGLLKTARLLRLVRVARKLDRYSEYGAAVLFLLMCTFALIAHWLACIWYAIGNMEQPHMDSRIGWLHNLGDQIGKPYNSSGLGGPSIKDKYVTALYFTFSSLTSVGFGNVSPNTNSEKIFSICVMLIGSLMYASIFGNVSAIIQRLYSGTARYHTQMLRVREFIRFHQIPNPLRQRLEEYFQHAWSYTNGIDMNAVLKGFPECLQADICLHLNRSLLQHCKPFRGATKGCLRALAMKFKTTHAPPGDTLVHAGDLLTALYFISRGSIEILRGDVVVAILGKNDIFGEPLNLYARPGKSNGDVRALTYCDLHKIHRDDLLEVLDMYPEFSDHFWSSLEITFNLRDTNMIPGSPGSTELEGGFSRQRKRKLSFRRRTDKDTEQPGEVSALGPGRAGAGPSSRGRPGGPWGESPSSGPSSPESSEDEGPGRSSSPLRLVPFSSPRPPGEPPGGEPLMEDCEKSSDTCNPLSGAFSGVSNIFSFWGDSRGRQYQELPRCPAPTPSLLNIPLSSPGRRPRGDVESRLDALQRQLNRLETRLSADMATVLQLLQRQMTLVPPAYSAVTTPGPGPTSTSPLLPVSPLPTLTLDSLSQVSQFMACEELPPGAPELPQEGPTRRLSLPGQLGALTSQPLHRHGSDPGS

Structure (SMILES)	EC50 [1] [µM]	IC50 [2] [µM]	Ratio [3]	IC50 [4] [µM]
Cc1cn(C2=CCC3C4CC=C5C[C@@H](NC(=O)c6ccncc6F)CC[C@]5(C)C4CC[C@]23C)cn1 (stereo partly drawn)	5.72	0.753	2.5	> 40
CC(=O)c1cn(C2=CCC3C4CC=C5C[C@@H](NC(=O)c6ccnnc6)CC[C@]5(C)C4CC[C@]23C)cn1 (stereo partly drawn)		1.38		
C[C@]12CC[C@H](NC(=O)c3ccnnc3)CC1=CCC1C2CC[C@]2(C)C(n3cnc(C(F)(F)F)c3)=CCC12 (stereo partly drawn)		0.819		
COc1cn(C2=CCC3C4CC=C5C[C@@H](NC(=O)c6ccncc6)CC[C@]5(C)C4CC[C@]23C)cn1 (stereo partly drawn)		0.436		4.07
CC(C)c1cn(C2=CCC3C4CC=C5C[C@@H](NC(=O)c6ccncc6)CC[C@]5(C)C4CC[C@]23C)cn1 (stereo partly drawn)	4.76	0.735	2.5	15
CCc1cn(C2=CCC3C4CC=C5C[C@@H](NC(=O)c6ccnnc6)CC[C@]5(C)C4CC[C@]23C)cn1 (stereo partly drawn)		0.427		6.58
C[C@]12CC[C@H](NC(=O)c3ccnnc3)CC1=CCC1C2CC[C@]2(C)C(n3cnc([N+](=O)[O-])c3)=CCC12 (stereo partly drawn)	3.31	0.418	2.5	> 40
Cc1cn(C2=CCC3C4CC=C5C[C@@H](NS(=O)(=O)c6ccc([N+](=O)[O-])cc6)CC[C@]5(C)C4CC[C@]23C)cn1 (stereo partly drawn)		3.44		
Cc1cn(C2=CCC3C4CC=C5C[C@@H](NC(=O)n6ccnc6)CC[C@]5(C)C4CC[C@]23C)cn1 (stereo partly drawn)		6.55		
CCc1cn(C2=CCC3C4CC=C5C[C@@H](NC(=O)c6ccncc6)CC[C@]5(C)C4CC[C@]23C)cn1 (stereo partly drawn)	3.21	0.356	2.5	3.58
CC(C)c1cn(C2=CCC3C4CC=C5C[C@@H](NC(=O)c6ccnnc6)CC[C@]5(C)C4CC[C@]23C)cn1 (stereo partly drawn)		0.958		> 40
Cc1cn(C2=CCC3C4CC=C5C[C@@H](NC(=O)c6ccc(S(C)(=O)=O)cc6)CC[C@]5(C)C4CC[C@]23C)cn1 (stereo partly drawn)	1.37	0.527	2.5	> 40
COC(=O)c1cn(C2=CCC3C4CC=C5C[C@@H](NC(=O)c6ccnnc6)CC[C@]5(C)C4CC[C@]23C)cn1 (stereo partly drawn)		1.96		
Cc1cn(C2=CCC3C4CC=C5C[C@@H](NS(=O)(=O)c6cccnc6)CC[C@]5(C)C4CC[C@]23C)cn1 (stereo partly drawn)		2.1		
C[C@]12CC[C@H](NC(=O)c3ccnnc3)CC1=CCC1C2CC[C@]2(C)C(n3cnc(F)c3)=CCC12 (stereo partly drawn)		2.35		

— ChEMBL document CHEMBL5331145, “Discovery of a Novel Bifunctional Steroid Analog, YXG-158, as an Androgen Receptor Degrader and CYP17A1 Inhibitor for the Treatment of Enzalutamide-Resistant Prostate Cancer” (J Med Chem, 2023)
